The structures appear in SMILES notation. Counter-ions that a name gives are not always drawn. Like-named read-outs stand apart in the source and are kept apart here.

Assay [1] concerns the target T1, Full-length (FL)-PRMT5-MEP50 enzyme complex (Homo sapiens, UniProt O14744).
T1 construct: 1.25 nM of Full-length (FL)-PRMT5-MEP50 enzyme complex; made in house; host or cells: baculovirus-transfected Sf21 cells
Description: PRMT5-MEP50 Enzyme Methylation Assay. To be noted: 1.0 nM PRMT5-MEP50, 75 nM biotinylated H4R3(Me1) peptide, 15 μM SAM, 60 min pre-incubation, 150 min at 37° C. In kind it is biochemical. The method, then: PRMT5/MEP50 biochemical assay is a direct measurement of the methylation activity of the enzyme complex on a short peptide substrate derived from the N-terminus of H4 histone. Methylation experiment is performed with recombinant protein. The assessment of inhibitory effect (IC50) of small molecules is measured by the effectiveness of the compounds to inhibit this reaction.
In this assay, the potency (IC50) of each compound was determined from a twenty-point (1:2 serial dilution; top compound concentration of 100000 nM) titration curve using the following outlined procedure. To each well of a white ProxiPlus 384 well-plate, 100 nL of compound (1% DMSO in final assay volume of 10 μL) was dispensed, followed by the addition of 8 μL of 1× assay buffer (50 mM Bicine pH 8.0, 1 mM DTT, 0.004% Tween20, 0.01% BSA) containing 1.25 nM of Full-length (FL)-PRMT5-MEP50 enzyme complex (recombinant proteins from baculovirus-transfected Sf21 cells: FL-PRMT5; MW=[…] and FL-MEP50; MW=38614) and 1 μL of 150 μM S-(5′-Adenosyl)-L-Methionine Chloride (SAM). Plates were sealed and placed in a 37° C. humidified chamber for a 60 min pre-incubation with compound. Subsequently, each reaction was initiated by the addition of 1 μL 1× assay buffer containing 750 nM biotinylated H4R3(Me1) peptide. The final reaction in each well of 10 μL consists of 1.0 nM PRMT5-MEP50, 75 nM biotinylated-peptide, and 15 μM SAM. Methylation reactions were allowed to proceed for 150 min in a sealed plate at 37° C. Reactions were immediately quenched by the addition of 1 μL of 5% formic acid. Plates were then frozen and shipped to SAMDI™ Tech Inc. to determine the percent conversion from H4R3(Me1) to H4R3(Me2). IC50 values were determined by a 7 parameter biphasic fit model plotting the percent Effect (based on product conversion) vs. (Log10) compound concentrations.

In assay [2] the target is T2, PRMT5 (Homo sapiens, UniProt O14744).
T2 construct: seeded with 4000 MCF-7 cells; endogenous in cells; host or cells: MCF-7 cells
T2 sequence (O14744 whole entry): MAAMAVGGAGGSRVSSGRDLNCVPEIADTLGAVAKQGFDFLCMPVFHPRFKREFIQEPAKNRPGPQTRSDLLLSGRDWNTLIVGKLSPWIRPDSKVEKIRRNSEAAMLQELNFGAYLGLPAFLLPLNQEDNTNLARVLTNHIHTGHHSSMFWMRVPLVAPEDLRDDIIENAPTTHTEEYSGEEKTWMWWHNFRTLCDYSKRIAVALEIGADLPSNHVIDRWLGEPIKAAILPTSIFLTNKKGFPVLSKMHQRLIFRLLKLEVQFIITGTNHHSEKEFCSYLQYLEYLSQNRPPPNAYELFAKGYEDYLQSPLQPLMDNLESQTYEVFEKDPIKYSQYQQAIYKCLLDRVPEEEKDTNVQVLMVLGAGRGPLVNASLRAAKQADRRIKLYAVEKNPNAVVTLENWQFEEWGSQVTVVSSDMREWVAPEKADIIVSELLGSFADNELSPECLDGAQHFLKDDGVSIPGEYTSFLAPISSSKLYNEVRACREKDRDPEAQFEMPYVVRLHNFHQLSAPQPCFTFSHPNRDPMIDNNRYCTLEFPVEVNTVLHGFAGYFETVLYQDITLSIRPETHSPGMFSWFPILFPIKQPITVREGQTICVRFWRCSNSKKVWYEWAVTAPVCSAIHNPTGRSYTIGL
T2 sequence (Q9BQA1 whole entry partner): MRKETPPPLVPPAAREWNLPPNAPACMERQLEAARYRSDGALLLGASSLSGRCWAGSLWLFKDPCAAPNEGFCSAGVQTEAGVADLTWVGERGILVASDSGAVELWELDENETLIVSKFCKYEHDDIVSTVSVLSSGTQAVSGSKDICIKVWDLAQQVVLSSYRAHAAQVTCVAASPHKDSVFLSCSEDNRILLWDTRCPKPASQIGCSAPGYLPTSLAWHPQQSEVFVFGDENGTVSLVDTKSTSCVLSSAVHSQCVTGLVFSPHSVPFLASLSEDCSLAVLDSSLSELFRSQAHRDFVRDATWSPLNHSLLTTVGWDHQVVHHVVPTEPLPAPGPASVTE
Description: PRMT5 Cell Target Engagement (TE) Assay. To be noted: MCF-7 cells, treated for 3 days, symmetrically dimethylated (SDMA) nuclear proteins by high content imaging; top concentration 10000 nM. In kind it is cell-based. An excerpt:
The PRMT5 TE assay is a biomarker assay for identifying compounds that inhibit symmetric dimethylation of arginine (SDMA) of PRMT5 substrates. The following substrates have been reported for PRMT5: histone H2A and H4 R3, Histone H3 R2, Histone H3 R8, spliceosome Sm proteins, ribosomal protein RPS10, p53, FEN1, nucleoplasmin, nucleolin, EGFR and EBNA. The assay will focus on detecting symmetrically dimethylated nuclear proteins using high content imaging technology. Detection of the expression of symmetrically dimethylated nuclear proteins is through a mixture of primary rabbit monoclonal antibodies to SDMA (CST 13222), which in turn recognized by an Alexafluor 488 dye-conjugated anti-rabbit IgG secondary antibody. The IN Cell Analyzer 2200 or Opera-Phenix measures nuclear Alexafluor 488 fluorescent dye intensity that is directly related to the level of expression of symmetrically dimethylated nuclear proteins at the single cell level. Nuclear AF488 dye intensities are compared to the mean value for DMSO treated cells (MIN) to report percent of inhibition for each compound-treated well. In this assay, the cell potency (EC50) of each compound was determined from a ten point (1:3 serial dilution; top compound concentration of 10000 nM) titration curve using the following outlined procedure. Each well of a BD falcon collagen coated black/clear bottom 384-well plate was seeded with 4000 MCF-7 cells in 30 μl media and allowed to attach for 5 h. Media is ATCC-formulated Eagle's Minimum Essential Medium, Catalog No. 30-2003. To make the complete growth medium, add the following components to the base medium: 0.01 mg/ml human recombinant insulin; fetal bovine serum to a final concentration of 10%. Additional 30 μl of media containing 2× compounds were added to each well. Cells were treated for 3 days in 37° C. CO2 incubator. On day 3, cells were fixed with Cytofix, permeabilized with 0.4% Triton-X-100/Cytofix, and washed with D-PBS without Ca/Mg. Cells were blocked with Licor Odessey blocking reagent for 1 h at room temperature, followed by incubation with anti-SDMA (1:1000) antibody at 4° C. overnight. 1° antibody was removed, followed by three washings with DPBS without Ca/Mg and 0.05% Tween20. Hoechst (5 μg/ml), Cell Mask deep stain (1:2000) and Alexa488-conjugated goat anti-rabbit IgG (2 μg/mL) was added for 1 hour at room temperature. A final washing step (three washes) was performed before sealing plate for imaging on In Cell Analyzer 2200 or Opera-Phenix. Images from analyzer were uploaded to Columbus (at WP or BOS) for image analysis. IC50 values were determined by 4 parameters robust fit of percent fluorescence units vs. (Log10) compound concentrations.

[3] abbreviates: first value of 7 parameter biphasic fit, read-out: Enzyme Methylation Assay EC50_1.
Where [4] appears, read: second value of 7 parameter biphasic fit, read-out: Enzyme Methylation Assay EC50_2.

T1 sequence (O14744 whole entry): as the sequence (O14744 whole entry) above
T1 sequence (Q9BQA1 whole entry partner): as the sequence (Q9BQA1 whole entry partner) above

With `Nc1nc2cc(OC[C@H]3O[C@@H](n4cnc(N)c5ncnc4-5)[C@H](O)[C@@H]3O)ccc2cc1Br` [Example 1, 3-[5-O-(2-amino-3-bromo-7-quinolinyl)-b-D-ribofuranosyl]-3H-purin-6-amine], the results for the EC50 in assay [1] (setting [3]), in assay [1] (setting [4]) and in assay [2] were 1.37 nM, 85.1 nM and 60.6 nM, respectively.

Regarding `Nc1ccn([C@@H]2O[C@H](COc3ccc4cc(Br)c(N)nc4c3)[C@@H](O)[C@H]2O)c2ncnc1-2` [Example 2, 4-[5-O-(2-amino-3-bromo-7-quinolinyl)-b-D-ribofuranosyl]-4H-imidazo[4,5-b]pyridin-7-amine], the EC50 in assay [1] (setting [3]) was 0.662 nM; in assay [1] (setting [4]) it was 18.3 nM; in assay [2], 19.2 nM.

Take `Nc1nc2cc(OC[C@H]3O[C@@H](n4nc5ncnc-5c(N)n4)[C@H](O)[C@@H]3O)ccc2cc1Br` [Example 3, 2-[5-O-(2-amino-3-bromo-7-quinolinyl)-b-D-ribofuranosyl]-2H-imidazo[4,5-d][1,2,3]triazin-4-amine trifluoroacetate]: the EC50 in assay [1] (setting [3]) is 1620 nM; in assay [2] it was greater than 10000 nM.

On to `Nc1ccn([C@@H]2C[C@H](CCc3ccc4cc(Br)c(N)nc4c3)[C@@H](O)[C@H]2O)c2ncnc1-2` [Example 4, (1S,2R,3S,5R)-3-[2-(2-amino-3-bromo-7-quinolinyl)ethyl]-5-(7-amino-4H-imidazo[4,5-b]pyridin-4-yl)-1,2-cyclopentanediol], for which the EC50 in assay [1] (setting [3]) stood at 0.489 nM; in assay [2], 2.54 nM.

In the case of `Cc1ccn([C@@H]2C[C@H](CCc3ccc4cc(Br)c(N)nc4c3)[C@@H](O)[C@H]2O)c2ncnc1-2` [Example 5, (1S,2R,3S,5R)-3-[2-(2-amino-3-bromo-7-quinolinyl)ethyl]-5-(7-methyl-4H-imidazo[4,5-b]pyridin-4-yl)-1,2-cyclopentanediol], the EC50 worked out at 0.32 nM in assay [1] (setting [3]) and 0.508 nM in assay [2].

`Nc1nc2cc(CC[C@H]3C[C@@H](n4cnc(N)c5ncnc4-5)[C@H](O)[C@@H]3O)ccc2cc1Br` [Example 6, (1S,2R,3S,5R)-3-[2-(2-amino-3-bromo-7-quinolinyl)ethyl]-5-(6-amino-3H-purin-3-yl)-1,2-cyclopentanediol hydrochloride]: the EC50 in assay [1] (setting [3]) turned out to be 0.264 nM; in assay [2] it was 1.69 nM.

Consider `Nc1ccn([C@@H]2C[C@H](CCc3ccc4ccc(NCC(F)F)nc4c3)[C@@H](O)[C@H]2O)c2ncnc1-2` [Example 7, (1R,2S,3R,5S)-3-(7-amino-4H-imidazo[4,5-b]pyridin-4-yl)-5-(2-{2-[(2,2-difluoroethyl)amino]-7-quinolinyl}ethyl)-1,2-cyclopentanediol], for which the EC50 in assay [1] (setting [3]) was 0.231 nM; in assay [2], 16.1 nM.

For `Cc1ccn([C@@H]2C[C@H](CCc3ccc4ccc(NCC(F)F)nc4c3)[C@@H](O)[C@H]2O)c2ncnc1-2` [Example 8, (1S,2R,3S,5R)-3-(2-{2-[(2,2-difluoroethyl)amino]-7-quinolinyl}ethyl)-5-(7-methyl-4H-imidazo[4,5-b]pyridin-4-yl)-1,2-cyclopentanediol], the EC50 in assay [1] (setting [3]) turned out to be 0.253 nM; in assay [2], 1.94 nM.

Consider `Cc1ncn([C@@H]2C[C@H](CCc3ccc4cc(Br)c(N)nc4c3)[C@@H](O)[C@H]2O)c2ncnc1-2` [Example 9, (1S,2R,3S,5R)-3-[2-(2-amino-3-bromo-7-quinolinyl)ethyl]-5-(6-methyl-3H-purin-3-yl)-1,2-cyclopentanediol], for which the figures for the EC50 in assay [1] (setting [3]) and in assay [2] were 0.282 nM and 1.05 nM, respectively.

As to `Cc1cc2ncnc-2n([C@@H]2C[C@H](CCc3ccc4cc(Br)c(N)nc4c3)[C@@H](O)[C@H]2O)c1` [Example 10, (1S,2R,3S,5R)-3-[2-(2-amino-3-bromo-7-quinolinyl)ethyl]-5-(6-methyl-4H-imidazo[4,5-b]pyridin-4-yl)-1,2-cyclopentanediol trifluoroacetate], the EC50 in assay [1] (setting [3]) was 1.62 nM; in assay [2], 116 nM.

As for `CCc1cc2ncnc-2n([C@@H]2C[C@H](CCc3ccc4cc(Br)c(N)nc4c3)[C@@H](O)[C@H]2O)c1` [Example 11, (1S,2R,3S,5R)-3-[2-(2-amino-3-bromo-7-quinolinyl)ethyl]-5-(6-ethyl-4H-imidazo[4,5-b]pyridin-4-yl)-1,2-cyclopentanediol trifluoroacetate], the EC50 worked out at 0.96 nM in assay [1] (setting [3]) and 30.2 nM in assay [2].

Take `Cc1ccn([C@@H]2O[C@H](CCc3ccc4cc(Br)c(N)nc4c3)[C@@H](O)[C@H]2O)c2ncnc1-2` [Example 12, (2R,3S,4R,5R)-2-(2-(2-amino-3-bromoquinolin-7-yl)ethyl)-5-(7-methyl-4H-imidazo [4,5-b]pyridin-4-yl)tetrahydrofuran-3,4-diol]: the EC50 in assay [1] (setting [3]) amounted to 0.58 nM; in assay [2], 1.7 nM.

As to `Cc1ccn([C@@H]2C[C@H](COc3ccc4cc(Br)c(N)nc4c3)[C@@H](O)[C@H]2O)c2ncnc1-2` [Example 13, (1S,2R,3R,5R)-3-(((2-amino-3-bromoquinolin-7-yl)oxy)methyl)-5-(7-methyl-4H-imidazo[4,5-b]pyridin-4-yl)cyclopentane-1,2-diol], the EC50 in assay [1] (setting [3]) stood at 0.404 nM; in assay [2] it was 61.5 nM.

The record behind these values is patent US11981701B2, “PRMT5 inhibitors” (Merck Sharp & Dohme LLC, priority 2018, dated 2024).
